Data set [1] concerns HeLa cells. The data set is described as follows: MTT cell viability assay. Type of data set: cell-based. The settings on record: 7 uM DOX, 24 hours. Here is the method:
The effect of DOX-PVN-CD46 on cell viability was measured using an MTT assay (FIG. 10A). HeLa cells were exposed to a free DOX, DOX-PVN, and DOX-PVN-CD46 for 24 hours at DOX concentrations ranging from 0.01 uM to 12 uM prior assaying. […] On the other hand, the percentage of viable cell was approximately 70-80% when the same concentration of free DOX (7 uM) was delivered to the cells. […] The PVN has two desirable properties as a drug delivery platform. First, it sequesters drugs effectively in blood and other biofluids. Second, it delivers drugs inside cells triggered by divalent ion concentration and with a timed release that increases the efficacy of drugs that rely on interactions with DNA. FACS was used to determine the dose-response of DOX-PVN-CD46-F after a 2-hour exposure (FIG. 10B). Cell detachment is an early sign of apoptosis. One method to determining cell survival is to count the number of adherent cells. At a PVN concentration of 1 pM, the number of adherent cells is reduced by approximately 25% (FIG. 10B). The FACS experiments in the lower panel of FIG. 10B counts only the adherent cells. Thus, the reduction in viable (adherent) cells accounts for the low levels of PVN internalization measured by fluorescence intensity. The number of adherent cells decreases to 50% at a DOX-PVN-CD46-F concentration of 100 μM (data not shown).

Data set [2] deals with HeLa cells. The data set is described as follows: PVN internalization by FACS / fluorescent microscopy. Type of data set: cell-based. Here is the method:
Flow cytometry measurements were carried out with the Becton Dickinson FACSCalibur® running Cellquest Pro. Flow cytometry is sometimes referred to as “FACS” herein. The positive population of cells is determined by gating the right-hand tail of the distribution of the negative control sample for each individual cell line at 1%. This setting can then used to determine the percentage of positive cells for each of the above markers for each individual cell line.
We have observed that PVNs with targeting peptides attached to the surface can be internalized into mammalian cells. […] Surface coverage can be determined in a fluorometer using a fluorescein standard curve to quantify the number of fluorophores in the sample and the UV-vis spectrum to quantify the concentration of RCNMV. Based on the measured fluorescence, we determined that the surface of the PVN was labeled with approximately 60 CD46-F peptides. The endocytosis of these formulations was detected using fluorescent microscopy and FACS. FACS quantifies PVN cellular uptake and cargo release in a two-channel fluorescence measurement on populations of hundreds of thousands of cells. […]

Regarding `COc1cccc2c1C(=O)c1c(O)c3c(c(O)c1C2=O)C[C@@](O)(C(=O)CO)C[C@@H]3O[C@H]1C[C@H](N)[C@H](O)[C@H](C)O1` [DOX, doxorubicin], the “percentage of viable cells” value with HeLa cells [1] was 70-80%.

B1: PVN-CAR-F: native RCNMV conjugated via SMCC with fluorescein-labeled CAR targeting peptide (conjugate)
chain: LSITTPEEMIEKAKGETAYLPCKFTLSPEDQGPLDIEWLISPADNQKVDQVIILYSGDKIYDDYYPDLKGRVHFTSNDLKSGDASINVTNLQLSDIGTYQCKVKKAPGVANKKIHLVVLVKPSGARCYVDGSEEIGSDFKIKCEPKEGSLPLQYEWQKLSDSQKMPTSWLAEMTSSVISVKNASSEYSGTYSCTVRNRVGSDQCLLRLNVVPPSNKAGLIAGAIIGTLLALALIGLIIFCCRKKRREEKYEKEVHHDIREDVPPPKSRTSTARSYIGSNHSSLGSMSPSNMEGYSKTQYNQVPSEDFERTPQSPTLPPAKVAAPNLSRMGAIPVMIPAQSKDGSIV
Consider B1, for which the “internalization in HeLa versus HepG2 cell lines” value in the data set on HeLa cells [2] is recorded as “nearly the same level of internalization”.

The values are drawn from patent publication US9061076B2, “Viral nanoparticle cell-targeted delivery platform” (North Carolina State University, priority 2007, dated 2015).
